# According to patent US5391552A, “Diphenylpiperazine derivative and drug for circulatory organ containing the same” (Pola Chemical Industries, Inc., priority 1990, dated 1995):
# What was measured:
# [1] = system: calcium; assay: Antagonism against calcium: inhibition of KCl-induced contraction of rat aorta ring specimens (Magnus tube, Test Example 1); parameters: species or system Male Wistar rats; conditions: inhibits 50% of the maximum contraction by KCl (10-60 mM); rat aorta rings, 37 °C; read-out: 50% inhibitory concentration
# Protocol: Male Wistar rats (300-350g) were exsanguinated to death and submitted to thoracotomy to take off aortae. Ring specimens having a width of 3 to 4 mm were prepared from the aortae. The specimen was suspended in a Magnus tube which was filled with Krebs Henseleit liquid of 37°±0.5° C., aerated with a mixing gas (95% of O2 and 5% of CO2) flowing in the liquid. A load of approximately 2 g was given to the specimen, and a tension variation was isometrically recorded.
# [2] = system: vertebral artery; assay: Variation of vertebral artery blood flow amount in anesthetized dogs (Test Example 2); type: in vivo, crossbred adult dogs; conditions: i.v.
# Protocol: After female and male crossbred adult dogs were put under anesthesia by using pentobarbital-Na, a cannula for blood pressure measuring and a cannula for drug dosing were set to the femoral artery and the femoral vein, respectively. The blood flow was measured using a probe fixed to the vertebral artery.
SMILES,IC50 [1] [nM],also measured
"O[C@@H](CSc1ccccc1)CN1CCN(CCCC(c2ccc(F)cc2)c2ccc(F)cc2)CC1 [Compound 18, (R)-(+)-1-[4,4-Bis(4-fluorophenyl)butyl]-4-(2-hydroxy-3-phenylthiopropyl)piperazine]",130,
"Oc1ccc(SCC(O)CN2CCN(CCCC(c3ccc(F)cc3)c3ccc(F)cc3)CC2)cc1 (stereo not drawn) [Compound 39, 1-[4,4-Bis(4-fluorophenyl)butyl]-4-[2-hydroxy-3-(4-hydroxyphenylthio)propyl]piperazine]",340,
"OC(CSCc1ccccc1)CN1CCN(C(c2ccc(F)cc2)c2ccc(F)cc2)CC1 (stereo not drawn) [Compound 24, 1-[Bis(4-fluorophenyl)methyl]-4-(2-hydroxy-3-phenylmethylthiopropyl)piperazine]",1400,
"COC(CSc1ccccc1)CN1CCN(CCCC(c2ccc(F)cc2)c2ccc(F)cc2)CC1 (stereo not drawn) [Compound 12, 1-[4,4-Bis(4-fluorophenyl)butyl]-4-(2-methoxy-3-phenylthiopropyl)piperazine.2HCl]",200,
"Nc1ccc(SCC(O)CN2CCN(CCCC(c3ccc(F)cc3)c3ccc(F)cc3)CC2)cc1 (stereo not drawn) [Compound 22, 1-[(4-Aminophenylthio)-2-hydroxypropyl]-4-[4,4bis(4-fluorophenyl)butyl]piperazine]",630,
"COc1ccc(SCC(O)CN2CCN(CCCC(c3ccc(F)cc3)c3ccc(F)cc3)CC2)cc1 (stereo not drawn) [Compound 41, 1-[4,4-Bis(4-fluorophenyl)butyl]-4-[2-hydroxy-3-(4-methoxyphenylthio)propyl]piperazine]",430,Variation of the blood flow amount ([2]; 10 μg/kg): 12%; Variation of the blood flow amount ([2]; 30 μg/kg): 25%; Variation of the blood flow amount ([2]; 100 μg/kg): 66%; Variation of the blood flow amount ([2]; 300 μg/kg): 87%
"OC(CNCCc1ccccc1)CN1CCN(C(c2ccccc2)c2ccccc2)CC1 (stereo not drawn) [Compound 3, 1-Diphenylmethyl-4-[2-hydroxy-3-(2-phenylethylamino)propyl]piperazine]",1300,
"Cc1ccc(SCC(O)CN2CCN(CCCC(c3ccc(F)cc3)c3ccc(F)cc3)CC2)cc1 (stereo not drawn) [Compound 20, 1-[4,4-Bis(4-fluorophenyl)butyl]-4-[2-hydroxy-3-(4methylphenylthio)propyl]piperazine]",270,
"CC(=O)OC(CSc1ccccc1)CN1CCN(CCCC(c2ccc(F)cc2)c2ccc(F)cc2)CC1 (stereo not drawn) [Compound 14, 1-(2-Acetoxy-3-phenylthiopropyl)-4-[4,4-bis(4-fluorophenyl)butyl]piperazine.2HCl]",280,
"OC(CSc1ccccc1)CN1CCN(C(c2ccc(F)cc2)c2ccc(F)cc2)CC1 (stereo not drawn) [Compound 53, 1-[Bis(4-fluorophenyl)methyl]-4-(2-hydroxy-3-phenylthiopropyl)piperazine]",1200,
"COc1ccc(CCNCC(O)CN2CCN(C(c3ccccc3)c3ccccc3)CC2)cc1OC (stereo not drawn) [Compound 5, 1-[3-{2-(3,4-Dimethoxyphenyl)ethylamino}-2-hydroxypropyl]-4-diphenylmethylpiperazine]",1200,
"OC(CSc1cccc2ccccc12)CN1CCN(CCCC(c2ccc(F)cc2)c2ccc(F)cc2)CC1 (stereo not drawn) [Compound 57, 1-[4,4-Bis(4-fluorophenyl)butyl]-4-[2-hydroxy-3-(1-naphthylthio)propyl]piperazine]",340,
"COc1ccccc1SCC(O)CN1CCN(CCCC(c2ccc(F)cc2)c2ccc(F)cc2)CC1 (stereo not drawn) [Compound 35, 1-[4,4-Bis(4-fluorophenyl)butyl]-4-[2-hydroxy-3-(2-methoxyphenylthio)propyl]piperazine]",160,Variation of the blood flow amount ([2]; 10 μg/kg): 13%; Variation of the blood flow amount ([2]; 30 μg/kg): 26%; Variation of the blood flow amount ([2]; 100 μg/kg): 66%; Variation of the blood flow amount ([2]; 300 μg/kg): 87%
"COc1cccc(SCC(O)CN2CCN(CCCC(c3ccc(F)cc3)c3ccc(F)cc3)CC2)c1 (stereo not drawn) [Compound 43, 1-[4,4-Bis(4-fluorophenyl)butyl]-4-[2-hydroxy-3-(3-methoxyphenylthio)propyl]piperazine]",280,Variation of the blood flow amount ([2]; 10 μg/kg): 7%; Variation of the blood flow amount ([2]; 30 μg/kg): 15%; Variation of the blood flow amount ([2]; 100 μg/kg): 55%; Variation of the blood flow amount ([2]; 300 μg/kg): 131%
"COc1ccccc1SCC(O)CN1CCN(C(c2ccc(F)cc2)c2ccc(F)cc2)CC1 (stereo not drawn) [Compound 45, 1-[Bis(4-fluorophenyl)methyl]-4-[2-hydroxy-3-(2methoxyphenylthio)propyl]piperazine]",1100,
"Fc1ccc(C(c2ccc(F)cc2)N2CCN(C/C=C/c3ccccc3)CC2)cc1 [Furnarizine, furnarizine, reference compound]",,Variation of the blood flow amount ([2]; 30 μg/kg): 8%; Variation of the blood flow amount ([2]; 100 μg/kg): 27%; Variation of the blood flow amount ([2]; 300 μg/kg): 44%; Variation of the blood flow amount ([2]; 1000 μg/kg): 55%

# Continued by falling IC50 [1], values first:
IC50 [1] [nM],SMILES,also measured
1300,"COc1ccccc1CCNCC(O)CN1CCN(C(c2ccccc2)c2ccccc2)CC1 (stereo not drawn) [Compound 4, 1-Diphenylmethyl-4-[2-hydroxy-3-{2-(2-methoxyphenyl)ethylamino}propyl]piperazine]",
1300,"COc1ccc(SCC(O)CN2CCN(C(c3ccc(F)cc3)c3ccc(F)cc3)CC2)cc1 (stereo not drawn) [Compound 55, 1-[Bis (4-fluorophenyl)methyl]-4-[2-hydroxy-3-(4-methoxyphenylthio)propyl]piperazine]",
1100,"OC(CSc1ccc(Cl)cc1)CN1CCN(CCCC(c2ccc(F)cc2)c2ccc(F)cc2)CC1 (stereo not drawn) [Compound 31, 1-[4,4-Bis(4-fluorophenyl)butyl]-4-[3-(4-chlorophenylthio)-2-hydroxyproply]piperazine]",
690,"OC(CSc1ccccc1)CN1CCN(CC(c2ccccc2)c2ccccc2)CC1 (stereo not drawn) [Compound 47, 1-(2,2-Diphenylethyl)-4-(2-hydroxy-3-phenylthiopropyl)piperazine]",
220,"OC(CNc1ccccc1)CN1CCN(CCCC(c2ccc(F)cc2)c2ccc(F)cc2)CC1 (stereo not drawn) [Compound 6, 1-[4,4-Bis(4-fluorophenyl)butyl]-4-(2-hydroxy-3-phenylaminopropyl)piperazine]",
160,"OC(CSc1ccccc1)CN1CCN(CCCC(c2ccc(F)cc2)c2ccc(F)cc2)CC1 (stereo not drawn) [Compound 10, 1-[4,4-Bis(4-fluorophenyl)butyl]-4-(2-hydroxy-3-phenylthiopropyl)piperazine.2HCl]",Variation of the blood flow amount ([2]; 10 μg/kg): 18%; Variation of the blood flow amount ([2]; 30 μg/kg): 14%; Variation of the blood flow amount ([2]; 100 μg/kg): 80%; Variation of the blood flow amount ([2]; 300 μg/kg): 125%
140,"OC(CSc1ccc(F)cc1)CN1CCN(CCCC(c2ccc(F)cc2)c2ccc(F)cc2)CC1 (stereo not drawn) [Compound 37, 1-[4,4-Bis(4-fluorophenyl)butyl]-4-[3-(4-fluorophenylthio)-2-hydroxypropyl]piperazine]",
140,"OC(CSc1ccccc1)CN1CCN(CCCC(c2ccccc2)c2ccccc2)CC1 (stereo not drawn) [Compound 51, 1-(4,4-Diphenylbutyl)-4-(2-hydroxy-3-phenylthiopropyl)piperazine]",
110,"OC(CSCc1ccccc1)CN1CCN(CCCC(c2ccc(F)cc2)c2ccc(F)cc2)CC1 (stereo not drawn) [Compound 28, 1-[4,4-Bis(4-fluorophenyl)butyl]-4-(2-hydroxy-3-phenylmethylthiopropyl)piperazine]",
100,"O[C@H](CSc1ccccc1)CN1CCN(CCCC(c2ccc(F)cc2)c2ccc(F)cc2)CC1 [Compound 16, (S)-(-)-1-[4,4-Bis(4-fluorophenyl)butyl]-4-(2-hydroxy-3-phenylthiopropyl)piperazine]",
